Assays:
[1] = test system: dogs with chronic heart failure produced by multiple sequential intracoronary microembolizations; assay: Ventriculographic measurements (LV volumes, ejection fraction) in dogs with chronic heart failure; format: in vivo, dog
Description: (§1) The following example examines the effects of ranolazine alone and in combination with an angiotensin converting enzyme (ACE) inhibitor and in combination with a beta-blocker on the progression of left ventricular (LV) dysfunction and LV chamber remodeling in dogs with chronic heart failure produced by multiple sequential intracoronary microembolizations.
(§2) Chronic LV dysfunction and failure in dogs was produced by multiple sequential intracoronary embolizations with polystyrene Latex microspheres (77-109 μm in diameter) as previously described by Sabbah et al. (1991) Am. J. Physiol. 260:H1379-H1384. Coronary microembolizations were performed during cardiac catheterization under general anesthesia and sterile conditions. Anesthesia was induced using a combination of intravenous injections of hydromorphone (0.22 mg/kg), diazepam (0.2-0.6 mg/kg) and sodium pentobarbital 50-100 mg to effect. Plane of anesthesia was maintained throughout the study using 1% to 2% isoflurane. Left and right heart catheterization was performed via a femoral arteriotomy and venotomy. After each catheterization, the vessels were repaired using 6-0 silk and the skin closed with 4-0 suture. Microembolizations were discontinued when LV ejection fraction, determined angiographically, was between 30% and 40%. A period of 2 weeks was allowed after the last embolization to ensure that infarctions produced by the last microembolizations have completely healed and heart failure was established. The study protocol was then performed.
(§3) Healthy, conditioned, purpose-bred mongrel dogs weighing between 19 and 25 kg.
(§4) A randomized, blinded, placebo controlled study design was used. A total of 28 dogs underwent multiple sequential intracoronary microembolizations as described above to produce chronic heart failure. Two weeks after the last embolization, dogs were randomized into 4 study groups (treatment arms). Dogs were randomized to 3 months oral therapy with ranolazine alone (375 mg, bid, n=7), ranolazine (375 mg bid) in combination with metoprolol tartrate (25 mg bid, n=7), ranolazine (375 mg bid) in combination with enalapril (10 mg bid, n=7), or placebo (ranolazine vehicle bid, n=7). Hemodynamic, angiographic, echocardiographic, Doppler and neurohumoral measurements were made prior to randomization (2 weeks after the last embolization) and after completion of therapy (3 months after initiating therapy). After completing the final hemodynamic and angiographic study, dogs were euthanized and the hearts removed and tissue prepared and saved for future histological and biochemical evaluations. The study primary and secondary end-points were as follows:
Left ventriculograms were performed during cardiac catheterization after completion of the hemodynamic measurements. Ventriculograms were performed with the dog placed on its right side and were recorded on 35 mm cine at 30 frames per second during a power injection of 20 ml of contrast material (RENO-M-60, Squibb Diagnostics). Correction for image magnification was made using a radiopaque grid placed at the level of the LV. LV end-systolic and end-diastolic volumes were calculated from angiographic silhouettes using the area length method (4). Premature beats and postextrasystolic beats were excluded from any analysis. LV ejection fraction was calculated as the ratio of the difference of end-diastolic and end-systolic volumes to end-diastolic volume times 100. Stroke volume was calculated as the difference between LV end-diastolic and end-systolic volumes. Cardiac output was calculated as the stroke volume times heart rate and cardiac index as the cardiac output divided by body surface area.
To ensure that all study measures were similar at baseline, comparisons were made between all 4 study groups before any embolizations and at the time of randomization before initiation of therapy. For these comparisons, a one way analysis of variance (ANOVA) was used with a set at 0.05. […]

[2] = test system: dogs with chronic heart failure produced by multiple sequential intracoronary microembolizations; assay: Echocardiographic and Doppler measurements in dogs with chronic heart failure; format: in vivo, dog; details: mean±SEM
Description: as §1, §2, §3, §4
Echocardiographic and Doppler studies were performed in all dogs at all specified study time points using a 77030A ultrasound system (Hewlett-Packard) with a 3.5 MHZ transducer. All echocardiographic measurements were made with the dog placed in the right lateral decubitus position and recorded on a Panasonic 6300 VHS recorder for subsequent off-line analysis. Transverse 2-dimensional echocardiograms were obtained at the level of the LV papillary muscle and were used to calculate LV fractional area of shortening. The latter was calculated as the end-diastolic LV cavity area minus the end-systolic cavity area divided by the end-diastolic cavity area times 100. Two chamber view 2-dimensional echocardiograms were also obtained to ascertain LV major and minor semiaxes to be used for calculation of LV end-diastolic circumferential wall stress. Wall stress was calculated as follows: Stress=Pb/h(1−h/2b)(1−hb/2a2), where P is LV end-diastolic pressure, a is LV major semiaxis, b is LV minor semiaxis, and h is LV wall thickness.
Mitral inflow velocity was measured by pulsed-wave Doppler echocardiography. The velocity waveforms were used to calculate peak mitral flow velocity in early diastole (PE), peak mitral inflow velocity during LA contraction (PA), the ratio of PE to PA and early mitral inflow deceleration time. […]

[3] = POST: after 3 months of oral therapy bid, mean±SEM
[4] = PRE: at time of randomization, before therapy, mean±SEM
[5] = at the end of 3 months of treatment
[6] = change from pre-treatment to post-treatment (3 months), mean±SEM
[7] = POST: after 3 months of oral therapy bid
[8] = PRE: at time of randomization, before therapy
[9] = change from pre-treatment to post-treatment (3 months)

Structure (SMILES): COc1ccccc1OCC(O)CN1CCN(CC(=O)Nc2c(C)cccc2C)CC1 (racemic) [RAN Alone, (±)-N-(2,6-dimethylphenyl)-4-[2-hydroxy-3-(2-methoxyphenoxy)-propyl]-1-piperazineacetamide]
- CI = cardiac index [1, 3]: 2.3 ± 0.2 L/min/m^2
- CO = cardiac output [1, 3]: 1.91 ± .18 L/min
- EDV = LV end-diastolic volume [1, 3]: 65 ± 2 mL
- EF = LV ejection fraction [1, 3]: 37 ± 2 %
- ESV = LV end-systolic volume [1, 3]: 41 ± 2 mL
- SV = stroke volume [1, 3]: 24 ± 1 mL
- CI = cardiac index [1, 4]: 2.0 ± 0.2 L/min/m^2
- CO = cardiac output [1, 4]: 1.67 ± .11 L/min
- EDV = LV end-diastolic volume [1, 4]: 63 ± 3 mL
- EF = LV ejection fraction [1, 4]: 35 ± 1%
- ESV = LV end-systolic volume [1, 4]: 41 ± 2 mL
- SV = stroke volume [1, 4]: 22 ± 1 mL
- LV ejection fraction, intra-group comparison pre- vs post-treatment [1, 5]: increased significantly
- LV end-diastolic volume, intra-group comparison pre- vs post-treatment [1, 5]: remained unchanged
- LV end-systolic volume, intra-group comparison pre- vs post-treatment [1, 5]: remained unchanged
- Δ CI (cardiac index) [1, 6]: 0.3 ± 0.1 L/min/m^2
- Δ CO (cardiac output) [1, 6]: 0.24 ± .10 L/min
- Δ EDV (LV end-diastolic volume) [1, 6]: 2 ± 1 mL
- Δ EF (LV ejection fraction) [1, 6]: 2 ± 1 %
- Δ ESV (LV end-systolic volume) [1, 6]: 0 ± 1 mL
- Δ SV (stroke volume) [1, 6]: 2 ± 1 mL
- Ability to reduce LV end-diastolic volume (FIG. 1) ([1]; data of Example 1): neither ranolazine, enalapril, nor metoprolol were independently able to reduce LV end-diastolic volume
- Ability to reduce LV end-systolic volume (FIG. 2) ([1]; data of Example 1): neither ranolazine, enalapril, nor metoprolol appear to independently reduce LV end-systolic volume
- DT = deceleration time [2, 7]: 87 ± 4 ms
- EDWS = LV end-diastolic circumferential wall stress [2, 7]: 42 ± 4 gm-cm^2
- FAS = LV fractional area of shortening [2, 7]: 29 ± 2%
- MR = severity of mitral regurgitation [2, 7]: 10.1 ± 1.3%
- PE/PA (mitral inflow velocity ratio) [2, 7]: 2.8 ± 0.3
- DT = deceleration time [2, 8]: 88 ± 3 ms
- EDWS = LV end-diastolic circumferential wall stress [2, 8]: 56 ± 5 gm-cm^2
- FAS = LV fractional area of shortening [2, 8]: 28 ± 1%
- MR = severity of mitral regurgitation [2, 8]: 11.3 ± 1.9%
- PE/PA (mitral inflow velocity ratio) [2, 8]: 2.7 ± 0.3
- Δ DT (deceleration time) [2, 9]: -1 ± 4 ms
- Δ EDWS (LV end-diastolic circumferential wall stress) [2, 9]: −14.5 ± 5.2 gm-cm^2
- Δ FAS (LV fractional area of shortening) [2, 9]: 1 ± 1 %
- Δ MR (severity of mitral regurgitation) [2, 9]: −1.2 ± 1.1%
- Δ PE/PA [2, 9]: 0.0 ± 0.4

From patent US20090176772A1, “METHOD OF REVERSING LEFT VENTRICULAR REMODELING” (priority 2004, published 2009)
